Assay type in all cases: in vivo
The subject of data set [1] is fall armyworm (Spodoptera frugiperda). Nature of the data set: Test B: control of fall armyworm on corn (maize) plant, foliar spray. The following applies: sprayed at 50 ppm; 1-day-old larvae on corn; replicated three times. Here is the method:
(§1) Test compounds were formulated using a solution containing 10% acetone, 90% water and 300 ppm X-77™ Spreader Lo-Foam Formula non-ionic surfactant containing alkylarylpolyoxyethylene, free fatty acids, glycols and isopropanol (Loveland Industries, Inc. Greeley, Colo., USA). The formulated compounds were applied in 1 mL of liquid through a SUJ2 atomizer nozzle with ⅛ JJ custom body (Spraying Systems Co. Wheaton, Ill., USA) positioned 1.27 cm (0.5 inches) above the top of each test unit. All experimental compounds in these tests were sprayed at 50 ppm, and the test was replicated three times. After spraying of the formulated test compound, each test unit was allowed to dry for 1 h and then a black, screened cap was placed on top. The test units were held for 6 days in a growth chamber at 25° C. and 70% relative humidity. Plant feeding damage was then visually assessed based on foliage consumed and a pest mortality rating was also counted and calculated for each test unit.
For evaluating control of fall armyworm (Spodoptera frugiperda) the test unit consisted of a small open container with a 4-5-day-old corn (maize) plant inside. This was pre-infested (using a core sampler) with 10-15 1-day-old larvae on a piece of insect diet. Test compounds were formulated and sprayed at 50 ppm as described for Test A and replicated three times. After spraying, the test units were maintained in a growth chamber and then the control efficacy was rated for each test unit as described for Test A.

Data set [2] has as its system diamondback moth (Plutella xylostella). Nature of the data set: Test A: control of diamondback moth on radish plant, foliar spray. The note with it: sprayed at 50 ppm; neonate larvae on radish; assessed after 6 days; replicated three times.
Source text: For evaluating control of diamondback moth (Plutella xylostella) the test unit consisted of a small open container with a 12-14-day-old radish plant inside. This was pre-infested with about 50 neonate larvae that were dispensed into the test unit via corn-cob grits using a bazooka inoculator. The larvae moved onto the test plant after being dispensed into the test unit.
as §1

In data set [3] the test system is western flower thrips (Frankliniella occidentalis). Put plainly: Test E: control of western flower thrips on Soleil bean plant, contact and/or systemic. The following applies: adult thrips, assessed after 6 days, replicated three times. Here is the method:
as §1
For evaluating control of the western flower thrips (Frankliniella occidentalis) through contact and/or systemic means, the test unit consisted of a small open container with a 5-7 day old Soleil Bean plant inside. Test compounds were formulated and sprayed as described for Test A. All experimental compounds in these tests were sprayed at 250 or 50 ppm as noted, and the test was replicated three times. After spraying, the test units were allowed to dry for 1 hour and then 22-27 adult thrips were added to each unit and then a black, screened cap was placed on top. The test units were held for 6 days at 25° C. and 45-55% relative humidity. A mortality rating was assessed along with a plant damage rating for each test unit.

Data on 22 compounds can be found in patent US9095138B2, “Isoxazoline insecticides” (E.I. du Pont de Nemours and Company, priority 2007, dated 2015).

Structures are written as SMILES.

As to `O=C(NCC(Cl)CCCCl)c1ccc(C2=NOC(c3cc(Cl)cc(Cl)c3)(C(F)(F)F)C2)c2ccccc12` (mixture of isomers) [Compound 14], the “control efficacy (feeding damage or mortality): very good to excellent levels” value (“control efficacy” below) in data set [1] and in data set [2] was 20% or less feeding damage or 80% or more mortality throughout.

For `CCC(CO)NC(=O)c1ccc(C2=NOC(c3cccc(C(F)(F)F)c3)(C(F)(F)F)C2)c2ccccc12` (mixture of isomers) [Compound 16], the “control efficacy” value in data set [1] and in data set [2] was 20% or less feeding damage or 80% or more mortality in each case.

Take `CC(NC(=O)c1ccc(C2=NOC(c3cc(C(F)(F)F)cc(C(F)(F)F)c3)(C(F)(F)F)C2)c2ccccc12)C(=O)O` (mixture of isomers) [Compound 31]: the “control efficacy” value in data set [3] (sprayed at 250 ppm), in data set [1] and in data set [2] was 20% or less feeding damage or 80% or more mortality throughout.

On to `CC(NC(=O)c1ccc(C2=NOC(c3cc(Cl)cc(C(F)(F)F)c3)(C(F)(F)F)C2)c2ccccc12)C(=O)O` (mixture of isomers) [Compound 32], for which the “control efficacy” value in data set [1] and in data set [2] was 20% or less feeding damage or 80% or more mortality each time.

For the compound `CC(NC(=O)c1ccc(C2=NOC(c3cc(Br)cc(C(F)(F)F)c3)(C(F)(F)F)C2)c2ccccc12)C(=O)O` (mixture of isomers) [Compound 38], the “control efficacy” value in data set [1] and in data set [2] was 20% or less feeding damage or 80% or more mortality throughout.

In the case of `CC(=O)N(C)CCCNC(=O)c1ccc(C2=NOC(c3cc(Cl)cc(Cl)c3)(C(F)(F)F)C2)c2ccccc12` (racemic) [Compound 4], the “control efficacy” value in data set [3] (sprayed at 50 ppm), in data set [3] (sprayed at 250 ppm), in data set [1] and in data set [2] was 20% or less feeding damage or 80% or more mortality throughout.

Consider `O=C(O)CNC(=O)c1ccc(C2=NOC(c3cc(C(F)(F)F)cc(C(F)(F)F)c3)(C(F)(F)F)C2)c2ccccc12` (racemic) [Compound 15], for which the “control efficacy” value in data set [1] and in data set [2] was 20% or less feeding damage or 80% or more mortality each time.

With `O=C(NCCCSCC(F)(F)F)c1ccc(C2=NOC(c3cccc(C(F)(F)F)c3)(C(F)(F)F)C2)c2ccccc12` (racemic) [Compound 21], the “control efficacy” value in data set [1] and in data set [2] was 20% or less feeding damage or 80% or more mortality in each case.

With `O=C(NCCn1ccc(C(F)(F)F)n1)c1ccc(C2=NOC(c3cccc(C(F)(F)F)c3)(C(F)(F)F)C2)c2ccccc12` (stereo not drawn) [Compound 17], the “control efficacy” value in data set [1] and in data set [2] was 20% or less feeding damage or 80% or more mortality throughout.

`O=C(NCCn1cncn1)c1ccc(C2=NOC(c3cccc(C(F)(F)F)c3)(C(F)(F)F)C2)c2ccccc12` (stereo not drawn) [Compound 18]: the “control efficacy” value in data set [1] and in data set [2] was 20% or less feeding damage or 80% or more mortality in each case.

`CC1(C)OCC(CNC(=O)c2ccc(C3=NOC(c4cccc(C(F)(F)F)c4)(C(F)(F)F)C3)c3ccccc23)O1` (stereo not drawn) [Compound 19]: the “control efficacy” value in data set [1] and in data set [2] was 20% or less feeding damage or 80% or more mortality throughout.

Take `O=C(NCC1CCCO1)c1ccc(C2=NOC(c3cccc(C(F)(F)F)c3)(C(F)(F)F)C2)c2ccccc12` (stereo not drawn) [Compound 20]: the “control efficacy” value in data set [1] and in data set [2] was 20% or less feeding damage or 80% or more mortality each time.

As for `O=C(NCC1CCCO1)c1ccc(C2=NOC(c3cc(C(F)(F)F)cc(C(F)(F)F)c3)(C(F)(F)F)C2)c2ccccc12` (stereo not drawn) [Compound 27], the “control efficacy” value in data set [1] and in data set [2] was 20% or less feeding damage or 80% or more mortality each time.

Consider `O=C(CNC(=O)c1ccc(C2=NOC(c3cc(Cl)cc(Cl)c3)(C(F)(F)F)C2)c2ccccc12)NC1CCCCC1` (stereo not drawn) [Compound 51], for which the “control efficacy” value in data set [1] and in data set [2] was 20% or less feeding damage or 80% or more mortality throughout.

For `O=C(CNC(=O)c1ccc(C2=NOC(c3cc(Cl)cc(Cl)c3)(C(F)(F)F)C2)c2ccccc12)NC1CCCC1` (stereo not drawn) [Compound 52], the “control efficacy” value in data set [1] and in data set [2] was 20% or less feeding damage or 80% or more mortality each time.

As to `O=C(CNC(=O)c1ccc(C2=NOC(c3cccc(C(F)(F)F)c3)(C(F)(F)F)C2)c2ccccc12)NC1CC1` (stereo not drawn) [Compound 54], the “control efficacy” value in data set [1] and in data set [2] was 20% or less feeding damage or 80% or more mortality each time.

Consider `O=C(CNC(=O)c1ccc(C2=NOC(c3cccc(Br)c3)(C(F)(F)F)C2)c2ccccc12)NCC1CC1` (stereo not drawn) [Compound 56], for which the “control efficacy” value in data set [1] and in data set [2] was 20% or less feeding damage or 80% or more mortality throughout.

With `O=C(CNC(=O)c1ccc(C2=NOC(c3cccc(OC(F)(F)F)c3)(C(F)(F)F)C2)c2ccccc12)NCC1CC1` (stereo not drawn) [Compound 60], the “control efficacy” value in data set [1] and in data set [2] was 20% or less feeding damage or 80% or more mortality throughout.

With `O=C(NCC(=O)N1CCCC1C(F)(F)F)c1ccc(C2=NOC(c3cc(Cl)cc(Cl)c3)(C(F)(F)F)C2)c2ccccc12` (stereo not drawn) [Compound 91], the “control efficacy” value in data set [1] and in data set [2] was 20% or less feeding damage or 80% or more mortality throughout.

With `O=C(NCC(F)(F)F)[C@H]1CCCN1C(=O)c1ccc(C2=NOC(c3cc(Cl)cc(Cl)c3)(C(F)(F)F)C2)c2ccccc12` (stereo partly drawn) [Compound 102], the “control efficacy” value in data set [1] and in data set [2] was 20% or less feeding damage or 80% or more mortality in each case.

Consider `CCNC(=O)[C@H]1CCCN1C(=O)c1ccc(C2=NOC(c3cc(Cl)cc(Cl)c3)(C(F)(F)F)C2)c2ccccc12` (stereo partly drawn) [Compound 106], for which the “control efficacy” value in data set [3] (sprayed at 50 ppm), in data set [3] (sprayed at 250 ppm) and in data set [2] was 20% or less feeding damage or 80% or more mortality in each case.

As to `Cn1ccc2c(C(=O)NCC[S+](C)[O-])ccc(C3=NOC(c4cc(Cl)cc(Cl)c4)(C(F)(F)F)C3)c21` (stereo not drawn) [Compound 111], the “control efficacy” value in data set [1] and in data set [2] was 20% or less feeding damage or 80% or more mortality in each case.
